Assay results published in patent US20130274237A1, “COMPOSITION INCLUDING CHLOROPHYLL A AS AN ACTIVE INGREDIENT FOR PREVENTING AND TREATING TH2-MEDIATED IMMUNOLOGICAL DISEASES” (GWANGJU INSTITUTE OF SCIENCE AND TECHNOLOGY, priority 2009, published 2013).
Values joined by “and” are separate entries in the source; they are usually repeats but may differ in a detail not shown here. Equal values may be shown once.

What was measured:
[1] = system: degranulation of mast cells; test: Histology: mast cells per degranulation level; type: in vivo, NC/Nga mice; conditions: for No. of Mast Cells per value of degranulation level 0, mean / No. of Mast Cells per value of degranulation level 2, mean: mean of 5 mice; for No. of Mast Cells per value of degranulation level 2 / No. of Mast Cells per value of degranulation level 2, mean: serious level of degranulation
Procedure: (§1) 4-7) Histology (H & E, Toluidine Blue Stain) • d. Skin tissues were fixed in 10% formalin for at least 24 hours, prepared into paraffin blocks, cut into pieces in the size of 4 μm, dyed with hematoxylin & eosin (Sigma, USA), and then dyed again with toluidine blue (Sigma, USA) for more accurate identification of inflammatory cells.

[2] = system: skin tissues of atopy-induced NC/Nga mice; test: Histology: H & E biopsy score of skin; type: in vivo; conditions: for H & E biopsy score: group mean, acanthosis, hyperkeratosis, neutrophil infiltration, fibroblast hyperplasia, dermis each scored 1 to 3
Procedure: as §1
The evaluation standard for biopsy was calculated in an averaged score scale of 1 to 3 based on the status of acanthosis, hyperkeratosis, neutrophil infiltration, fibroblast hyperplasia, dermis, etc. […] Among them, a group treated with 1 mg/kg of chlorophyll a as a test drug was evaluated as being of significance (FIGS. 18-23).

[3] = Body weight of atopy-induced NC/Nga mice; conditions: DNCB atopy-induced NC/Nga mice
Excerpt: 20 fourteen-week old female NC/Nga mice (Central Lab. Animal Inc., Korea) with a body weight of about 20 g were used. The experimental animals were allowed to adapt for 7 days in the animal rooms before the experiment, and observed for general symptoms.
A test solution prepared by dissolving a mixture consisting of acetone and olive oil in 3:1 ratio in dinitrochlorobenzene (DNCB) to a concentration of about 1% to about 0.2% was coated on the skin of the NC/Nga mice to induce atopic dermatitis.
Body weight was measured twice from the time when the test material was administered.

C=Cc1c(C)c2cc3nc(c4c5[n-]c(cc6nc(cc1[n-]2)C(C)=C6CC)c(C)c5C(=O)[C@@H]4C(=O)OC)[C@@H](CCC(=O)OC/C=C(\C)CCC[C@H](C)CCC[C@H](C)CCCC(C)C)[C@@H]3C.[Mg+2] [chlorophyll a]
No. of Mast Cells per value of degranulation level 0, mean ([1]; normal degranulation, 1 mg/kg oral daily, 1 mg/kg): 4.64±1.22 and 4.64 | No. of Mast Cells per value of degranulation level 0 ([1]; normal degranulation, 5 mg/kg oral daily, individual mouse, 5 mg/kg): 5.98 and 6.31 and 4.51 and 7.41 and 3.81 | No. of Mast Cells per value of degranulation level 0, mean ([1]; normal degranulation, 5 mg/kg oral daily): 5.60 | No. of Mast Cells per value of degranulation level 0, mean ([1]; normal degranulation, 5 mg/kg oral daily, 5 mg/kg): 5.60±1.44 | No. of Mast Cells per value of degranulation level 2 ([1]; 1 mg/kg oral daily, individual mouse, 1 mg/kg): 1.56 and 0.62 and 0.66 and 1.25 and 2.38 | No. of Mast Cells per value of degranulation level 2, mean ([1]; 1 mg/kg oral daily, 1 mg/kg): 1.30±0.73 and 1.30 | No. of Mast Cells per value of degranulation level 2 ([1]; 5 mg/kg oral daily, individual mouse, 5 mg/kg): 0.44 and 1.44 and 5.45 and 1.82 and 3.00 | No. of Mast Cells per value of degranulation level 2, mean ([1]; 5 mg/kg oral daily, 5 mg/kg): 2.43±1.92 and 2.43 | H & E biopsy score ([2]; 1 mg/kg oral daily): 4.6±0.55 | tissue H&E reading: improvement in atopy symptom ([2]; 1 mg/kg oral daily, in words): the most improvement | H & E biopsy score ([2]; 5 mg/kg oral daily): 5±1.58 | body weight ([3]; 1 mg/kg oral daily, day 1, individual mouse, 1 mg/kg): 25.6 g and 27.4 g and 24.5 g and 24 g and 26.1 g | body weight, group mean ([3]; 1 mg/kg oral daily, day 1, mean of 5 mice): 25.52 g | body weight ([3]; 1 mg/kg oral daily, day 3, individual mouse, 1 mg/kg): 25.7 g and 27.6 g and 25.8 g and 25.5 g and 27.1 g | body weight, group mean ([3]; 1 mg/kg oral daily, day 3, mean of 5 mice): 26.34 g | body weight ([3]; 1 mg/kg oral daily, day 5, individual mouse, 1 mg/kg): 27.3 g and 28.2 g and 26.5 g and 26 g and 27.8 g | body weight, group mean ([3]; 1 mg/kg oral daily, day 5, mean of 5 mice): 27.16 g | body weight ([3]; 1 mg/kg oral daily, day 7, individual mouse, 1 mg/kg): 27.3 g and 27.6 g and 26.5 g and 24.7 g and 28.6 g | body weight, group mean ([3]; 1 mg/kg oral daily, day 7, mean of 5 mice): 26.94 g | body weight ([3]; 1 mg/kg oral daily, day 9, individual mouse, 1 mg/kg): 28.4 g and 27.4 g and 25.8 g and 25.7 g and 27.7 g | body weight, group mean ([3]; 1 mg/kg oral daily, day 9, mean of 5 mice): 27 g | body weight, group mean ([3]; 1 mg/kg oral daily, day 11 (time of sacrifice), mean of 5 mice, 1 mg/kg): 28.36 ± 1.045 g and 28.36 g | body weight ([3]; 1 mg/kg oral daily, day 11, individual mouse, 1 mg/kg): 29 g and 28.9 g and 27.5 g and 27 g and 29.4 g | body weight ([3]; 5 mg/kg oral daily, day 1, individual mouse, 5 mg/kg): 24.9 g and 28.6 g and 27.5 g (2×) and 27.1 g | body weight, group mean ([3]; 5 mg/kg oral daily, day 1, mean of 5 mice): 27.12 g | body weight ([3]; 5 mg/kg oral daily, day 3, individual mouse, 5 mg/kg): 24.8 g and 29.6 g and 27.1 g and 29 g and 27.4 g | body weight, group mean ([3]; 5 mg/kg oral daily, day 3, mean of 5 mice): 27.58 g | body weight ([3]; 5 mg/kg oral daily, day 5, individual mouse, 5 mg/kg): 25.9 g and 30.8 g and 26.7 g and 29.3 g and 28 g | body weight, group mean ([3]; 5 mg/kg oral daily, day 5, mean of 5 mice): 28.14 g | body weight ([3]; 5 mg/kg oral daily, day 7, individual mouse, 5 mg/kg): 25.9 g and 30.6 g and 27.2 g and 30.2 g and 28.2 g | body weight, group mean ([3]; 5 mg/kg oral daily, day 7, mean of 5 mice): 28.42 g | body weight ([3]; 5 mg/kg oral daily, day 9, individual mouse, 5 mg/kg): 25.3 g and 30.6 g and 27.2 g and 29 g and 27 g | body weight, group mean ([3]; 5 mg/kg oral daily, day 9, mean of 5 mice): 27.82 g | body weight, group mean ([3]; 5 mg/kg oral daily, day 11 (time of sacrifice), mean of 5 mice, 5 mg/kg): 28.86 ± 2.033 g and 28.86 g | body weight ([3]; 5 mg/kg oral daily, day 11, individual mouse, 5 mg/kg): 25.7 g and 31.3 g and 29.2 g and 29.5 g and 28.6 g | change in body weight by the administration ([3]; oral administration, in words): no decrease
